Columns and labels:
[1] = molecular target: T1, Recombinant full-length human IDO1 (Homo sapiens, UniProt P14902); assay: IDO1 enzymatic assay (NFK quantified by LCMS); format: biochemical; details: 2 nM enzyme, 5 μM L-tryptophan, pH6.5, 30 minutes pre-incubation at RT; mean values when measured multiple times; read-out: hIDO activity (IC50 in nM)
T1 construct: Recombinant full-length human IDO1 with a N-terminal hexahistidine tag; hexahistidine (His6) (N); made in house; host or cells: E. coli
Procedure, shortened: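 IC50 comes from four-parameter logistic fits of duplicate data, with NFK quantified by LCMS and normalized to L-Trp-(indole-d5). Compound (0.5 nM–10 μM) was preincubated 30 min at RT with 2 nM E. coli-expressed IDO1 before a 30 min reaction with 5 μM tryptophan in pH 6.5 buffer containing ascorbate and methylene blue.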

[2] = molecular target: T2, Recombinant human TDO comprising amino acids 19-407 (Homo sapiens, UniProt P48775); assay: TDO2 enzymatic assay (NFK quantified by LCMS); format: biochemical; details: 15 nM enzyme, 200 μM L-tryptophan, pH7, 30 minutes pre-incubation at RT; mean values when measured multiple times; read-out: hTDO activity (IC50 in nM)
T2 construct: Recombinant human TDO comprising amino acids 19-407 with a N-terminal hexahistidine tag; hexahistidine (His6) (N); made in house; host or cells: E. coli
T2 sequence (P48775 19-406 limits assumed): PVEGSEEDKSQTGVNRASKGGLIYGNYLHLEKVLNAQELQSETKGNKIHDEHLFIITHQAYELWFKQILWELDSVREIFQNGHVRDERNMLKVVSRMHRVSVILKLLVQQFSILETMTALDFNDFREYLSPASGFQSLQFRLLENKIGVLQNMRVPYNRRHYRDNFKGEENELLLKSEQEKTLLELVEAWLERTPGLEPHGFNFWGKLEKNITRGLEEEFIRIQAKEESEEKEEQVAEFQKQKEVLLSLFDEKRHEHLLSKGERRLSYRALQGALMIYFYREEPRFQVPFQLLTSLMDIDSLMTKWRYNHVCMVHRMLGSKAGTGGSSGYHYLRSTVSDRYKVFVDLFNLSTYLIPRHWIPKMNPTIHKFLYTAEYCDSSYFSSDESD
Procedure, shortened: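 NFK formed over 30 min at RT from 200 μM L-tryptophan was measured by LCMS, normalized to d5-tryptophan, after compound (0.5 nM–10 μM, duplicates, 0.6% DMSO) was preincubated 30 min with 15 nM recombinant His-tagged TDO 19-407 in phosphate buffer pH 7. IC50 from four-parameter logistic fit; repeats averaged.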

T1 sequence (P14902 whole entry): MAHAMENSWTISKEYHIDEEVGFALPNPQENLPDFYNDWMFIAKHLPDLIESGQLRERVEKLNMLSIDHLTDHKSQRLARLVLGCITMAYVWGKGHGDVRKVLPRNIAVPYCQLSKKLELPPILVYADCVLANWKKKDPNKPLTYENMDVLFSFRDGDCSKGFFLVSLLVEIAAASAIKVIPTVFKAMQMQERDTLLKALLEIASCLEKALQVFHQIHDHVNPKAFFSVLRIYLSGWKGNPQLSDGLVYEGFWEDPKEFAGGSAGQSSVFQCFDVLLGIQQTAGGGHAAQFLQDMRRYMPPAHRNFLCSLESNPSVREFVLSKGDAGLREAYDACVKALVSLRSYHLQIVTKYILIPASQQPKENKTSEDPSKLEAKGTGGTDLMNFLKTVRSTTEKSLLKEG

With CCc1sc2cncn2c1C(O)c1cn(-c2ccc(OCC3(F)COC3)c(Cl)c2)nn1 (racemic) [Example 317, rac-{1-[3-Chloro-4-(3-fluoro-oxetan-3-ylmethoxy)-phenyl]-1H-[1,2,3]triazol-4-yl}-(2-ethyl-imidazo[5,1-b]thiazol-3-yl)-methanol] the IC50 [1] was 7.18 nM and the IC50 [2] was greater than 10200 nM.
Compound CCc1sc2cncn2c1C(O)c1cn(-c2ccc3[nH]ccc3c2)nn1 (racemic) [Example 50, rac-(2-Ethyl-imidazo[5,1-b]thiazol-3-yl)-[1-(1H-indol-5-yl)-1H-[1,2,3]triazol-4-yl]-methanol] has an IC50 [1] of 9.63 nM and an IC50 [2] of 1970 nM.
COCCNC(=O)c1ccc(-n2cc(C(O)c3c(C4CC4)sc4cncn34)nn2)cc1 (racemic) [Example 102, rac-4-{4-[(2-Cyclopropyl-imidazo[5,1-b]thiazol-3-yl)-hydroxy-methyl]-[1,2,3]triazol-1-yl}-N-(2-methoxy-ethyl)-benzamide] gave an IC50 [1] of 23.2 nM and an IC50 [2] greater than 10200 nM.
Compound COc1ccc(-n2nnc(C(O)c3c(C)sc4cncn34)c2C)cc1 (racemic) [Example 255, rac-[1-(4-Methoxy-phenyl)-5-methyl-1H-[1,2,3]triazol-4-yl]-(2-methyl-imidazo[5,1-b]thiazol-3-yl)-methanol] has an IC50 [1] of 14.2 nM and an IC50 [2] of 6940 nM.
Work on COc1ccc(-n2nnc(C(O)c3c([C@@H]4C[C@H]4F)sc4cncn34)c2F)cc1 (relative stereo) [Example 335, [2-(trans-2-Fluoro-cyclopropyl)-imidazo[5,1-b]thiazol-3-yl]-[5-fluoro-1-(4-methoxy-phenyl)-1H-[1,2,3]triazol-4-yl]-methanol] yielded an IC50 [1] of 23 nM and an IC50 [2] greater than 10200 nM.
Compound Oc1c(F)cc(-n2cc(C(O)c3c(C4CC4)sc4cncn34)nn2)cc1F (racemic) [Example 149, rac-4-{4-[(2-Cyclopropyl-imidazo[5,1-b]thiazol-3-yl)-hydroxy-methyl]-[1,2,3]triazol-1-yl}-2,6-difluoro-phenol] has an IC50 [1] of 3.8 nM and an IC50 [2] greater than 10200 nM.
With CC(C)(CO)COc1ccc(-n2cc(C(O)c3c(C4CC4)sc4cncn34)nn2)cc1 (racemic) [Example 141, rac-3-(4-{4-[(2-Cyclopropyl-imidazo[5,1-b]thiazol-3-yl)-hydroxy-methyl]-[1,2,3]triazol-1-yl}-phenoxy)-2,2-dimethyl-propan-1-ol] the IC50 [1] was 27.2 nM and the IC50 [2] was greater than 10200 nM.
Compound OC(c1cn(-c2ccc(OCc3ccccc3)cc2)nn1)c1c(C2CC2)sc2cncn12 (racemic) [Example 45, rac-[1-(4-Benzyloxy-phenyl)-1H-[1,2,3]triazol-4-yl]-(2-cyclopropyl-imidazo[5,1-b]thiazol-3-yl)-methanol] has an IC50 [1] of 46.4 nM and an IC50 [2] greater than 10200 nM.
With O[C@@H](c1cn(-c2ccc(OCC3(F)COC3)c(Cl)c2)nn1)c1c(C2CC2)sc2cncn12 [Example 282, (R)-{1-[3-Chloro-4-(3-fluoro-oxetan-3-ylmethoxy)-phenyl]-1H-[1,2,3]triazol-4-yl}-(2-cyclopropyl-imidazo[5,1-b]thiazol-3-yl)-methanol] the IC50 [1] was 5.58 nM and the IC50 [2] was greater than 10200 nM.
Compound Cn1ccc2cc(-n3cc(C(O)c4c(C5CC5)sc5cncn45)cn3)cnc21 (racemic) [Example 229, rac-(2-Cyclopropyl-imidazo[5,1-b]thiazol-3-yl)-[1-(1-methyl-1H-pyrrolo[2,3-b]pyridin-5-yl)-1H-pyrazol-4-yl]-methanol] has an IC50 [1] of 43.7 nM and an IC50 [2] of 1440 nM.
For OC(c1cnn(-c2cccnc2)c1)c1c(C2CC2)sc2cncn12 (racemic) [Example 260, rac-(2-Cyclopropyl-imidazo[5,1-b]thiazol-3-yl)-(1-pyridin-3-yl-1H-pyrazol-4-yl)-methanol], the IC50 [1] was 43.2 nM and the IC50 [2] was 6510 nM.
Cc1sc2cncn2c1C(O)c1cn(-c2cccc(C#N)c2)nn1 (racemic) [Example 60, rac-3-{4-[Hydroxy-(2-methyl-imidazo[5,1-b]thiazol-3-yl)-methyl]-[1,2,3]triazol-1-yl}-benzonitrile] showed an IC50 [1] of 294 nM and an IC50 [2] greater than 10200 nM.
CCN(CC)S(=O)(=O)c1ccc(-n2cc(C(O)c3c(C4CC4)sc4cncn34)nn2)cc1 (racemic) [Example 238, rac-4-{4-[(2-Cyclopropyl-imidazo[5,1-b]thiazol-3-yl)-hydroxy-methyl]-[1,2,3]triazol-1-yl}-N,N-diethyl-benzenesulfonamide] showed an IC50 [1] of 137 nM and an IC50 [2] greater than 10200 nM.
CCc1sc2cncn2c1C(O)c1cn(-c2ccc(N)c(Cl)c2)nn1 (racemic) [Example 272, rac-[1-(4-Amino-3-chloro-phenyl)-1H-[1,2,3]triazol-4-yl]-(2-ethyl-imidazo[5,1-b]thiazol-3-yl)-methanol] gave an IC50 [1] of 4.44 nM and an IC50 [2] of 3840 nM.
Compound COc1ccc(-n2nnc(C(O)c3c(C4CC4)sc4cncn34)c2C(C)(C)C)cc1 (racemic) [Example 274, rac-[5-tert-Butyl-1-(4-methoxy-phenyl)-1H-[1,2,3]triazol-4-yl]-(2-cyclopropyl-imidazo[5,1-b]thiazol-3-yl)-methanol] has an IC50 [1] of 36 nM and an IC50 [2] greater than 10200 nM.
Work on COc1ccc(-n2cc(C(O)c3c(C4CC4)sc4cncn34)nn2)cc1 (racemic) [Example 9, rac-(2-Cyclopropyl-imidazo[5,1-b]thiazol-3-yl)-[1-(4-methoxy-phenyl)-1H-[1,2,3]triazol-4-yl]-methanol] yielded an IC50 [1] of 8.62 nM and an IC50 [2] greater than 10200 nM.
Work on O=C(NCCCO)c1ccc(-n2cc(C(O)c3c(C4CC4)sc4cncn34)nn2)cc1 (racemic) [Example 184, rac-4-{4-[(2-Cyclopropyl-imidazo[5,1-b]thiazol-3-yl)-hydroxy-methyl]-[1,2,3]triazol-1-yl}-N-(3-hydroxy-propyl)-benzamide] yielded an IC50 [1] of 14.5 nM and an IC50 [2] greater than 10200 nM.
Compound OC(c1ccc(-c2ccncc2)s1)c1c(C2CC2)sc2cncn12 (racemic) [Example 168, rac-(2-Cyclopropyl-imidazo[5,1-b]thiazol-3-yl)-(5-pyridin-4-yl-thiophen-2-yl)-methanol] has an IC50 [1] of 189 nM and an IC50 [2] of 1060 nM.
Work on Cc1sc2cncn2c1C(O)c1cn(-c2ccc(N3CCOCC3)cc2)nn1 (racemic) [Example 56, rac-(2-Methyl-imidazo[5,1-b]thiazol-3-yl)-[1-(4-morpholin-4-yl-phenyl)-1H-[1,2,3]triazol-4-yl]-methanol] yielded an IC50 [1] of 422 nM and an IC50 [2] greater than 10200 nM.
In the case of OC(c1cn(-c2ccc(OCC3(F)COC3)c(Cl)c2)nn1)c1c(-c2ccccc2)sc2cncn12 (racemic) [Example 266, rac-{1-[3-Chloro-4-(3-fluoro-oxetan-3-ylmethoxy)-phenyl]-1H-[1,2,3]triazol-4-yl}-(2-phenyl-imidazo[5,1-b]thiazol-3-yl)-methanol], the IC50 [1] is reported as 179 nM and the IC50 [2] is reported as greater than 10200 nM.
Work on Oc1ccc(Cn2cc(C(O)c3c(C4CC4)sc4cncn34)nn2)cc1 (racemic) [Example 304, rac-4-{4-[(2-Cyclopropyl-imidazo[5,1-b]thiazol-3-yl)-hydroxy-methyl]-[1,2,3]triazol-1-ylmethyl}-phenol] yielded an IC50 [1] of 52.2 nM and an IC50 [2] greater than 10200 nM.
Cc1sc2cncn2c1C(O)c1cnn(-c2ccccc2)c1 (racemic) [Example 96, rac-(2-Methyl-imidazo[5,1-b]thiazol-3-yl)-(1-phenyl-1H-pyrazol-4-yl)-methanol] gave an IC50 [1] of 163 nM and an IC50 [2] of 2530 nM.
With Cc1cc(O)ccc1-n1cc(C(O)c2c(C3CC3)sc3cncn23)nn1 (racemic) [Example 207, rac-4-{4-[(2-Cyclopropyl-imidazo[5,1-b]thiazol-3-yl)-hydroxy-methyl]-[1,2,3]triazol-1-yl}-3-methyl-phenol] the IC50 [1] was 26.9 nM and the IC50 [2] was greater than 10200 nM.
OC(c1cn(-c2ccccc2)nn1)c1c(C2CC2)sc2cncn12 (racemic) [Example 2, rac-(2-Cyclopropyl-imidazo[5,1-b]thiazol-3-yl)-(1-phenyl-1H-[1,2,3]triazol-4-yl)-methanol] gave an IC50 [1] of 28.1 nM and an IC50 [2] greater than 10200 nM.
Compound CC(=O)c1ccc(-n2cc(C(O)c3c(C4CC4)sc4cncn34)nn2)cc1 (racemic) [Example 10, rac-1-(4-{4-[(2-Cyclopropyl-imidazo[5,1-b]thiazol-3-yl)-hydroxy-methyl]-[1,2,3]triazol-1-yl}-phenyl)-ethanone] has an IC50 [1] of 18.4 nM and an IC50 [2] greater than 10200 nM.
With OC(c1cccc(-c2ccccc2)c1)c1c(C2CC2)sc2cncn12 (racemic) [Example 153, rac-Biphenyl-3-yl-(2-cyclopropyl-imidazo[5,1-b]thiazol-3-yl)-methanol] the IC50 [1] was 2320 nM and the IC50 [2] was greater than 10200 nM.
CC1(c2sc3cncn3c2C(O)c2cn(-c3ccc(OCCCO)c(Cl)c3)nn2)CC1 (racemic) [Example 313, rac-3-[2-Chloro-4-(4-{hydroxy-[2-(1-methyl-cyclopropyl)-imidazo[5,1-b]thiazol-3-yl]-methyl}-[1,2,3]triazol-1-yl)-phenoxy]-propan-1-ol] gave an IC50 [1] of 13.7 nM and an IC50 [2] greater than 10200 nM.
COc1ccc(-n2cc(C(O)c3c(-c4cnn(C)c4)sc4cncn34)nn2)cc1 (racemic) [Example 273, rac-[1-(4-Methoxy-phenyl)-1H-[1,2,3]triazol-4-yl]-[2-(1-methyl-1H-pyrazol-4-yl)-imidazo[5,1-b]thiazol-3-yl]-methanol] showed an IC50 [1] of 43.6 nM and an IC50 [2] greater than 10200 nM.

From patent US20200405696A1, “INHIBITORS OF INDOLEAMINE 2,3-DIOXYGENASE AND/OR TRYPTOPHAN 2,3-DIOXYGENASE” (IDORSIA PHARMACEUTICALS LTD, priority 2018, published 2020)
